Source: publication PMC9032516, “Targeting Zika Virus with New Brain- and Placenta-Crossing Peptide–Porphyrin Conjugates” (Pharmaceutics, 2022)
Where a name gives a salt, the structure may show the parent alone. Read-outs that look alike come from different tables or passages of the source. Each block holds one compound with its values, some of them ahead of it. No end group written: not given here.

Legend:
[1] = Serum stability; type: in vitro ADME; details: human serum diluted 1:1 (v/v) with HEPES buffer, 0.05 mM in 1:1 human serum / HEPES buffer (10 mM, NaCl 150 mM, pH 7.8), 37 °C, methanol precipitation, three independent replicates, read-out: t1/2 in human serum (converted)
[2] = system: HBEC-5i human brain endothelia monolayer (in vitro BBB model); assay: In vitro BBB integrity assay (FD4 permeability after incubation); type: cell-based
Method: After 24 h incubation with PPCs, cells were washed with PBS and DMEM:F12 medium without phenol red. […] Three independent replicates were performed.

[3] = system: HIV; design: method as in 2 sources, one per row (each row's own in cited_ref): ref [24] as printed in Table 2, ref [2] in supplement ||| ref 23 = [23]; PMID 34033716; doi:10.1021/acs.bioconjchem.1c00123; 23. Mendonça D.A. Bakker M. Cruz-Oliveira C. Neves V. Jiménez M.A. Defaus S. Cavaco M. Veiga A.S. Cadima-Couto I. Castanho M.A.R.B. Penetrating the Blood-Brain Barrier with New Peptide–Porphyrin Conju; details: in vitro; values marked a; ref [24] as printed in Table 2, ref [2] in supplement; cited from earlier work
[4] = system: ZIKV^BR; assay: ZIKV inactivation assay (plaque assay on Vero cells); type: cell-based, Zika virus; details: 10^5 PFU ZIKV^BR pre-treated 1 h at 37 °C in the dark with 0.01–50 µM, titrated by plaque assay on Vero cells, three independent replicates
Method: After infection, cells were cultured for 7 days.
Three independent replicates were performed.

Compound: SGTQEEY-NH2 [P5, SGTQEEY-amide]
half-life at 0.05 mM ([1]; over 24 h, HPLC peak area (401 nm for porphyrins)): 2.2 h

Compound: VQQLTKRFSL-NH2 [P1]
half-life at 0.05 mM ([1]; HPLC): 0.733 h

Continued, in another order:

FD4 permeability post-translocation (Basolateral Content), BBB ([2]; HBEC-5i monolayer after 24 h incubation with 10 µM compound, 4 kDa FITC-dextran apical, 2 h, fluorescence, three independent replicates, black bars Figure 1B, control (cells only) 10.3%): 24.7%
increase in FD4 permeability over control values, BBB ([2]; HBEC-5i monolayer, 24.7% versus control 10.3%): 2.5 fold
Compound: C=CC1=C(C)c2cc3[nH]c(cc4nc(cc5[nH]c(cc1n2)c(C)c5CCC(=O)O)C(CCC(=O)O)=C4C)c(C)c3C=C [PP, protoporphyrin IX]
IC50 [3]: > 50 µM

FD4 permeability post-translocation (Basolateral Content), BBB [2]: 29.6%
Compound: O=C(O)CN(CCOCCOCCN(CC(=O)O)CC(=O)O)CC(=O)O [EGTA]

IC50 [4]: > 50 µM
Compound: CCC1=C(C)c2cc3[nH]c(cc4[nH]c(cc5nc(cc1n2)C(C)=C5CC)c(C)c4CCC(=O)O)c(CCC(=O)O)c3C [MP, Mesoporphyrin IX dihydrochloride]
IC50 [3]: > 50 µM
